Data set [1] concerns S. cerevisiae C10 resistant mutants (CDC60 editing domain mutations). Briefly: MIC (NCCLS M27), spontaneous and EMS induced C10 resistant mutants. Format: cell-based, Saccharomyces cerevisiae. As for the experimental part:
(§1) The haploid Saccharomyces cerevisiae strain ATCC 201388 was used in the selection of C10 resistant mutants. Spontaneous and EMS-induced resistant mutants were isolated from YPD agar plates containing 4×, 8×, 16×MIC of C10. All minimal inhibitory concentrations (MIC) were determined using NCCLS protocol M27 with the exception of using YPD or synthetic defined media. All yeast and molecular genetic manipulations were essentially performed as described by Guthrie C., et al., Methods in Enzymology, 350: Part B, (2002).
Resistant mutants appeared after 2 d incubation at 30° C. Frequency of resistance was determined by dividing the number of resistant mutants by the total number of cells plated as determined by plating dilutions of the overnight culture on YPD plates.
A 2.5 mL of the overnight culture, which was grown in YPD media, was centrifuged at 700×g for 5 minutes. The cell pellet was resuspended in 10 mL 50 mM potassium phosphate buffer, pH 7.0. The cell suspension was centrifuged again and the cell pellet was resuspended in phosphate buffer to obtain a cell density of 5×10^7 cells/mL as determined by counting the cells using a Petroff Hausser Counting Chamber (Horsham, Pa. USA). The cell suspension was shaken with 300 μL of EMS (Alfa Aesar, Ward Hill, Mass., USA) for 30 min. at 30° C. The mutagenesis was stopped by adding 10% (w/v) sodium thiosulfate (Sigma-Aldrich, St. Louis, Mo., USA), and the cells were pelleted by centrifugation at 700×g for 5 min. and resuspended in 1 mL sterile H2O. This was repeated once more before the cells were plated on YPD agar plates containing 1.6 μg/mL of C10.
(§2) The minimal inhibitory concentration (MIC) was essentially performed following the NCCLS guidelines outlined in the M27 protocol with the exception of using YPD or synthetic defined media (SDM).

Data set [2] concerns Saccharomyces cerevisiae strain ATCC 201388. Briefly: MIC (NCCLS M27, YPD or synthetic defined media), haploid parental strain. Type of data set: cell-based. As for the experimental part:
as §1, §2

Data set [3] is classed as in vitro ADME, human. As for the experimental part:
C10, 5-fluoro-1,3-dihydro-1-phenyl-2,1-benzoxaborole, C1, and 5-fluoro-1,3-dihydro-1-(3-hydroxymethylphenyl)-2,1-benzoxaborole, formulated at 10% w/v in ethanol, were tested. A single aliquot (10 μl) of each formulation was dosed to the top of human nail plates using the nail penetration procedure described below, and allowed to stand for 3-days. The dosed area was washed, and then the cotton ball bed supporting the nail and the nail samples were collected at the end of the incubation period, stored at 4° C. and analyzed for drug using LC/MS/MS.
Details of the nail incubation have been previously described^9, 10. […] The supporting cotton ball under the nail was wetted by normal saline providing moisture for the nail plate, and the degree of hydration was monitored and controlled during the experiment. […]
LC/MS/MS (API3000, Applied Biosystems, Foster City, Calif.) was used to quantitate the amounts of non-radiolabeled oxaboroles, C10, 5-fluoro-1,3-dihydro-1-phenyl-2,1-benzoxaborole, C1, and 5-fluoro-1,3-dihydro-1-(3-hydroxymethylphenyl)-2,1-benzoxaborole in samples from the nail penetration studies. […] After centrifugation, the filtrate from the cotton ball samples was transferred to autosampler vials and analyzed by LC/MS/MS. […]

Data set [4] deals with S. cerevisiae ATCC201388 bearing pRS425 or CDC60 on pRS425. Briefly: MIC with over-expression of wild type CDC60. Type of data set: cell-based, Saccharomyces cerevisiae. The note with it: Saccharomyces cerevisiae.
Excerpt: as §2
A 4.0 kb BamH I-Sal I DNA fragment containing the entire CDC60 open reading frame (ORF) and 700 bp of upstream sequence was amplified using KOD DNA polymerase, S. cerevisiae genomic DNA (Novagen, Madison, Wis., USA), and the primers GAGGGATCCGGTTAGTTTTAGTTCGCGAGTGACCTG and GAGGTCGACGATTTCTGGTTGCTGTTTATTGATCTT (Operon, Alameda, Calif., USA). This DNA fragment was then cloned into the […] multi-copy plasmid pRS425, and transformed into S. cerevisiae ATCC201388 (Gietz, R D et al., Methods in Enzymology 305: 87-96 (2002)).

Where [5] appears, read: Saccharomyces cerevisiae, Table 2, C10 resistant mutant (C).
[6] abbreviates: Saccharomyces cerevisiae, Table 2, C10 resistant mutant (G).
Setting [7] is: Saccharomyces cerevisiae, Table 2, C10 resistant mutant (H).
[8] abbreviates: Saccharomyces cerevisiae, ATCC201388, Table 2, ATCC201388, read-out: MIC.
[9] abbreviates: Table 2, C10 resistant mutant (C).
The mark [10] stands for this setting: Table 2, C10 resistant mutant (G).
Where [11] appears, read: Table 2, C10 resistant mutant (H).

Values after ≈ are worked out from the molar mass of the structure shown. Read-outs that look alike come from different tables or passages of the source. Where only a bound is given, the exact number is not on record here.

Results on 16 compounds are retold here after patent US9566290B2, “Boron-containing small molecules” (Anacor Pharmaceuticals, Inc., priority 2005, dated 2017).

As a reminder, the MIC is the lowest concentration that inhibits growth of the organism. What is called melting point is the temperature, or range, at which the solid turns liquid.

As for `C/C=C/C/C=C/CCC(=O)[C@H]1O[C@H]1C(N)=O` [Cerulenin], the “resistance of C10 resistant mutants to other antifungals, in words” value (“resistance of C10 resistant mutants” for short) in data set [1] is given as “not resistant”. Further, the MIC in data set [1] (Saccharomyces cerevisiae, Table 1, mutant (A), CDC60 N415D) is 0.5 µg/mL (≈ 2.24 µM); in data set [1] (Saccharomyces cerevisiae, Table 1, mutant (B), CDC60 R316I), 0.5 µg/mL (≈ 2.24 µM); in data set [1] (Saccharomyces cerevisiae, Table 1, mutant (C), CDC60 C326F), 0.5 µg/mL (≈ 2.24 µM); in data set [1] (Saccharomyces cerevisiae, Table 1, mutant (D), CDC60 G405V), 0.5 µg/mL (≈ 2.24 µM); in data set [1] (Saccharomyces cerevisiae, Table 1, mutant (E), CDC60 C326R), 0.5 µg/mL (≈ 2.24 µM); in data set [1] (Saccharomyces cerevisiae, Table 1, mutant (F), CDC60 D487G), 0.5 µg/mL (≈ 2.24 µM). For the same compound, the MIC amounted to 0.5 µg/mL (≈ 2.24 µM) in data set [1] (Saccharomyces cerevisiae, Table 1, mutant (G), CDC60 L315V); 0.5 µg/mL (≈ 2.24 µM) in data set [1] (Saccharomyces cerevisiae, Table 1, mutant (H), CDC60 T314M); 1 µg/mL (≈ 4.48 µM) in data set [1] (Saccharomyces cerevisiae, Table 1, mutant (I), CDC60 S416L); 1 µg/mL (≈ 4.48 µM) in data set [1] (Saccharomyces cerevisiae, Table 1, mutant (J), CDC60 D487N); 1 µg/mL (≈ 4.48 µM) in data set [1] (Saccharomyces cerevisiae, Table 1, mutant (K), CDC60 T319I); 0.5 µg/mL (≈ 2.24 µM) in data set [1] (setting [5]). The minimum inhibitory concentration (MIC) in data set [1] (setting [6]) is 0.5 µg/mL (≈ 2.24 µM); in data set [1] (setting [7]), 0.5 µg/mL (≈ 2.24 µM); in data set [2] (Saccharomyces cerevisiae, ATCC201388, Table 1, haploid strain ATCC201388, read-out: MIC), 1 µg/mL (≈ 4.48 µM); in data set [2] (setting [8]) it was 0.5 µg/mL (≈ 2.24 µM).

Regarding `C[C@@H]1[C@H](O)[C@@H](C)/C=C/C=C/C=C/C=C/C=C/C=C/C=C/[C@H](O[C@@H]2O[C@H](C)[C@@H](O)[C@H](N)[C@@H]2O)C[C@@H]2O[C@](O)(C[C@@H](O)C[C@@H](O)[C@H](O)CC[C@@H](O)C[C@@H](O)CC(=O)O[C@H]1C)C[C@H](O)[C@H]2C(=O)O` [Amphotericin B], in data set [1], the “resistance of C10 resistant mutants” value was “not resistant”. Besides, the “MIC” value in data set [2] (Table 2, ATCC201388) amounted to 0.125 µg/mL (≈ 0.135 µM).

In the case of Aculeacin A, the “resistance of C10 resistant mutants” value in data set [1] is on record as “not resistant”. In addition, the “MIC” value in data set [1] (setting [9]) came out at 4 µg/mL; in data set [1] (setting [10]), 4 µg/mL; in data set [1] (setting [11]) it was 4 µg/mL; in data set [2] (Table 2, ATCC201388) it was 4 µg/mL.

`C[C@@H]1C[C@@H]([C@H](O)CC2CC(=O)NC(=O)C2)C(=O)[C@@H](C)C1` [Cyclohexamide]: the “resistance of C10 resistant mutants” value in data set [1] was “not resistant”. The “MIC” value in data set [1] (setting [9]) was below 0.06 µg/mL; in data set [1] (setting [10]), below 0.06 µg/mL; in data set [1] (setting [11]), below 0.06 µg/mL; in data set [2] (Table 2, ATCC201388), below 0.06 µg/mL.

On to `Fc1ccc2c(c1)COB2c1ccccc1` [Compound 3, 5-fluoro-1,3-dihydro-1-phenyl-2,1-benzoxaborole], for which, in data set [3], the “penetration of the nail plate, in words” value was “penetrates the nail plate poorly”.

For `C[C@@H]([C@H](N)C(=O)N[C@H](C(=O)O)[C@H]1O[C@@H](n2ccc(=O)[nH]c2=O)[C@H](O)[C@@H]1O)[C@H](O)c1ccc(O)cn1` [Nikkomycin Z], the “resistance of C10 resistant mutants” value in data set [1] was “not resistant”. The “MIC” value stood at 64 µg/mL (≈ 129 µM) in data set [1] (setting [9]); 64 µg/mL (≈ 129 µM) in data set [1] (setting [10]); 64 µg/mL (≈ 129 µM) in data set [1] (setting [11]); 64 µg/mL (≈ 129 µM) in data set [2] (Table 2, ATCC201388).

For `CN(C/C=C/C#CC(C)(C)C)Cc1cccc2ccccc12` [Terbinafine], the “resistance of C10 resistant mutants” value in data set [1] is listed as “not resistant”. In addition, the MIC in data set [1] (setting [5]), in data set [1] (setting [6]), in data set [1] (setting [7]) and in data set [2] (setting [8]) was 4 µg/mL (≈ 13.7 µM) each time.

As for Tunicamycin, in data set [1], the “resistance of C10 resistant mutants” value is “not resistant”. Besides, the “MIC” value in data set [1] (setting [9]) was found to be 8 µg/mL; in data set [1] (setting [10]), 8 µg/mL; in data set [1] (setting [11]) it was 8 µg/mL; in data set [2] (Table 2, ATCC201388), 8 µg/mL.

`OC(Cn1cncn1)(Cn1cncn1)c1ccc(F)cc1F` [Fluconazole, reference compound]: the MIC in data set [4] (ATCC201388, CDC60 on pRS425 (20 copies)) was 2 µg/mL (≈ 6.53 µM); in data set [4] (ATCC201388, pRS425 Plasmid control) it was 2 µg/mL (≈ 6.53 µM).

Compound `COc1ccc(Oc2ccc3c(c2)B(O)OC3)cc1` [C31, 6-(4-methoxyphenoxy)benzo[c][1,2]oxaborol-1(3H)-ol] showed a melting point of 126 to 129 °C.

`COc1ccc2c(c1)c(Sc1ccccc1)cn2-c1ccc2c(c1)B(O)OC2` [C72, 6-(5-methoxy-3-(phenylthio)-1H-indol-1-yl)benzo[c][1,2]oxaborol-1(3H)-ol] came in with a melting point of 135 to 141 °C.

With `CCC(C)n1ncn(-c2ccc(N3CCN(c4ccc(OCC5COC(Cn6cncn6)(c6ccc(Cl)cc6Cl)O5)cc4)CC3)cc2)c1=O` (stereo not drawn) [Itraconazole], the minimum inhibitory concentration (MIC) in data set [1] (setting [5]), in data set [1] (setting [6]), in data set [1] (setting [7]) and in data set [2] (setting [8]) was 0.125 µg/mL (≈ 0.177 µM) throughout.

`OB1OCc2ccc(F)cc21` [C13, 6-fluorobenzo[c][1,2]oxaborol-1(3H)-ol] returned a melting point of 110 to 117.5 °C.

`OB1OCc2ccc(Oc3ccc(OC(F)(F)F)cc3)cc21` [C29, 6-(4-(trifluoromethoxy)phenoxy)benzo[c][1,2]oxaborol-1(3H)-ol] returned a melting point of 97 to 101 °C.

For the compound `CN(C)c1ccc2c(c1)B(O)OC2` [C51, 6-(dimethylamino)benzo[c][1,2]oxaborol-(3H)-ol], the melting point was 120 to 123 °C.

With `N#CCCSc1cn(-c2ccc3c(c2)B(O)OC3)c2ccccc12` [C67, 3-(1-(1-hydroxy-1,3-dihydrobenzo[c][1,2]oxaborol-6-yl)-1H-indol-3-ylthio)propanenitrile], the melting point lay within 135 to 141 °C.
